From patent US20210308077A1, “COMBINATIONS INCLUDING BETA-ADRENORECEPTOR AGONISTS FOR TREATMENT OF PARKINSON`S DISEASE AND MOVEMENT DISORDERS” (The Brigham and Women`s Hospital, Inc., priority 2017, published 2021)

Legend:
[1] = tested on: α-synuclein protein and mRNA in substantia nigra; test: Snca expression in substantia nigra, dose-finding mouse trial; format: in vivo; conditions: 10 mg/kg intraperitoneal, 24 hours, P<0.05
Protocol: The clenbuterol pharmacokinetic (PK) study was done in wild-type C57BL/6J male mice by ChemPartner Co., LTD in Shanghai. The study was done with 4 groups of four mice; one control group and three treatment groups with clenbuterol administered via intraperitoneal injection at dosages of 1, 5 and 10 mg/kg once every 24 hours. Following completion of the administration schedule, blood samples were collected at various time points (e.g. 0.25, 2, 8, and 24 hours), from the four mice per group per time point (final time point of 24 hours post injection). Mice were sacrificed following each blood collection and brains were removed and snap frozen. […] Plasma and brain samples were analyzed by LC-MS/MS for compound concentration at each of three concentrations and at each time point. Standard pharmacokinetic parameters (e.g. AUClast, AUCINF, terminal elimination half-life (t1/2), clearance, volume of distribution, time at maximum observed plasma concentration, etc.) were determined in both plasma and brain tissueby WinNonlin V 6.2 statistics software (Pharsight Corporation, California, USA) using a non-compartmental model. […]
Protein lysis buffer containing 320 mM sucrose, 5 mM NaF, 1 mM Na3VO4, 10 mM Tris (pH 7.4), 1 mM EGTA, and 1 mM EDTA was used for mice brain tissue lysis. […] Total protein concentrations were determined by BCA assay (Thermo Scientific) according to the manufacturer's instructions. […]

[2] = tested on: α-synuclein protein and mRNA in substantia nigra; test: placebo-controlled trial in wild-type mice, Snca expression in substantia nigra; format: in vivo, mouse
Protocol: Twenty C57BL/6J male mice (8 weeks old) (Jackson Laboratory, Bar Harbor Me.) were used for the placebo-controlled trial. Mice were exposed to a 12-hour light and 12-hour dark cycle, maintained at a constant temperature of 22° C., and were cared for in accordance with the National Institutes of Health Guide for the Care and Use of Laboratory Animals. Clenbuterol was purchased from Sigma (St. Louis, Mo.). Clenbuterol (10 mg/kg, injection volume 10 ml/kg) dissolved in saline was administered to mice (N=10) intraperitoneally. Saline was administered as a vehicle treatment (N=10). Mice were euthanized by CO224 hours post-injection. Brains were removed and snap frozen immediately in dry ice. Further dissections were performed on the frozen tissue to obtain substantia nigra regions. Tissue was then stored at −80° C. until mRNA or protein extraction was performed.
Total RNA from flash-frozen mice brain tissue, rodent primary cells, human neuroblastoma cells and iPSC-derived neuronal cells was isolated using TRIzol® (Life Technologies) following the manufacturer's protocol. RNA concentration was measured using NanoDrop spectrophotometer (Thermo Fisher Scientific, Wilmington, De.). 2 μg of total RNA was reverse transcribed into cDNA using the High Capacity cDNA Reverse Transcription Kit from Applied Biosystems. Quantitative PCR was performed using TaqMan Universal PCR Master Mix (Applied Biosystems) on an ABI 7900HT instrument (Applied Biosystems) as described previously (31). […] Expression values were analyzed using the comparative threshold cycle method (31).
Protein lysis buffer containing 320 mM sucrose, 5 mM NaF, 1 mM Na3VO4, 10 mM Tris (pH 7.4), 1 mM EGTA, and 1 mM EDTA was used for mice brain tissue lysis. […] Total protein concentrations were determined by BCA assay (Thermo Scientific) according to the manufacturer's instructions. Total α-synuclein was quantified using an α-synuclein-specific sandwich ELISA. […]

[3] = 10 mg/kg intraperitoneal, 24 hours, vs saline, n=10 per group

## CC(C)(C)NCC(O)c1cc(Cl)c(N)c(Cl)c1 (centres unmarked) [clenbuterol]
[1]
  nigral α-synuclein mRNA levels: significant reduction
  nigral α-synuclein protein levels: significant reduction
[2]; [3]
  endogenous α-synuclein mRNA in substantia nigra: lowered
  endogenous α-synuclein protein in substantia nigra: lowered
[2]; anti-α-synuclein antibodies 2F12 and C-20
  α-synuclein protein in substantia nigra by Western blotting: confirmed by Western blotting
